According to patent US10179927B2, “Electrochemical detection of microorganisms” (priority 2014, dated 2019):

Experiments:
[1] = test system: Enterococcus faecalis; experiment: Suitability of colorimetric detection compounds for bioelectrochemical detection of Enterococcus faecalis; format: cell-based; details: compound used for colorimetric detection of Enterococcus faecalis
Text: Bioelectroanalytical techniques are emerging as ways to enumerate and scrutinize microbial systems. But there is still need in the art for technologies specifically designed for bioelectroanalytical detection of FIB. […] The latter, in particular, makes them unsuitable in self-powering systems.

[2] = test system: Escherichia coli strain BL21; experiment: Chronoamperometric detection of E. coli with electrochemically active reporters in three-electrode electrochemical systems (ECs); format: cell-based; details: for Detection time (±std dev): chronoamperometry in ECs, reporter 50 μM
Experimental: Resorufin (TCI-Europe), 2-hydroxy-1,4-naphthoquinone (2H14NQ) (TCI-Europe), 5-hydroxy-1,4-naphthoquinone (5H14NQ) (TCI-Europe) and 5,8-dihydroxy-1,4-naphthoquinone (58H14NQ) (Sigma-Aldrich) were obtained commercially and added to M9 medium in their unconjugated form to achieve a working concentration of 50 μM. Resorufin glycoconjugates (resorufin-β-d-galactopyranoside and resorufin-β-d-glucopyranoside) were obtained commercially (Sigma-Aldrich), whereas 2-hydroxy-1,4-naphthoquinone-β-d-galactopyranoside (2H14NQGal) and 2-hydroxy-1,4-naphthoquinone-β-d-glucopyranoside (2H14NQG1u) were specifically synthesized by Sussex Research Ltd. All reporters were added to a final concentration of 50 μM. Stock concentrations (1.0×10^−3 M) of 2H14NQ and 5H14NQ were prepared by first dissolving in 10 μL of 2 M NaOH and then making up to volume in Type II water (Veolia) whereas 58H14NQ (1.0×10^−3 M) was prepared in 1:1 DMSO:Type II water aliquots. Both stock solutions were stored at −20° C. until needed. Conjugated reporters were maintained as 1 mM stock solutions in Type II water and stored at 5° C.
(§1) Escherichia coli strain BL21 was selected to represent a FIB of human origin that contains the uidA and lacZ genes, i.e. a FC, whereas Aeromonas hydrophila (DSM 6173) is an environmental organism that has the lacZ gene but which is not considered a coliform. All organisms were cultured aerobically for 20 h. E. coli was grown in Luria Bertani (Lennox) medium at 37° C., and A. hydrophile at 30° C. in tryptone soy broth (TSB) in a shaking incubator.
(§2) The resulting overnight cultures were diluted in sterile modified M9 medium (Na2HPO4.7H2O (126 mM); KH2PO4 (110 mM); NH4Cl (93 mM); NaCl (42 mM); 1 mL/L vitamin stock solution; tryptone 12.5 g/L; HEPES: 6 g/L; and macro nutrients). The carbon source was either D-galacturonic acid or D-glucuronic acid (3.75 g/L) to achieve a final inoculum density in the range of 1.0×10^0, 5.0×10^0, 5.0×10^1, 5.0×10^2, 5.0×10^3, 5.0×10^4, and 5.0×10^5 CFU mL^−1 in both electrochemical system and the bioelectrochemical system.
Conical ECs with a working volume of 10 mL were used with a customized Teflon cap to accommodate a three electrode configuration along with gas fittings to maintain a moist anaerobic atmosphere. Carbon felt working electrodes (1×1×0.318 cm) (VWR, Singapore) were kept for 24 h in 1 M HCl and stored in deionized (DI) water before use. The electrodes were connected to titanium wire (0.25 mmØ, Sigma-Aldrich) using a nylon nut and bolt. A coiled titanium wire was used as counter electrode and an Ag/AgCl reference electrode (78 mm, 6 mm Outer Ø, Biologic, France) was connected using a 1 M KCl in 1.5% agar salt bridge. The assembled cell was then filled with 1 M KCl solution ending in a 4 mm glass frit (CoralPor™, Biologic, France). The entire assembly was then autoclaved (121° C. for 15 min). Nine mL of degassed modified M9 medium was added to the ECs and supplemented with a reporter to a final concentration of 5.0×10^−5 M in 10 mL working volume. The ECs were then inoculated with the targeted test organism to achieve a final working volume of 10 mL. The headspace was flushed continuously with sterile humidified N2. The ECs were operated at 30° C., 37° C. or 44.5° C. Stirring was maintained continuously with a magnetic stirrer in the dark to prevent photo-bleaching of the light sensitive mediators.
(§3) Following reporter supplement and inoculation with the test microorganism, the ECs were connected to a multichannel potentiostat (Biologic, France) and cyclic voltammetry (CV) and differential pulse voltammetry (DPV) were performed immediately. Data acquisition was recorded by EC-Lab software (Biologic, France). Chronoamperometry (CA) was applied for up to 24 h to detect redox active reporter moieties. A detection event was calculated as 4 times the standard deviation of the baseline and detection times are expressed as the mean of triplicate analyses unless stated otherwise. […]

[3] = test system: mixed culture of E. coli and A. hydrophila; experiment: Detection time of mixed culture of A. hydrophila and E. coli in ECs; format: cell-based, Escherichia coli; Aeromonas hydrophila; details: 30° C., E. coli constant 5×10^5 CFU mL^−1
Experimental: as §1, §2
(§4) Conical ECs with a working volume of 10 mL were used with a customized Teflon cap to accommodate a three electrode configuration along with gas fittings to maintain a moist anaerobic atmosphere. Carbon felt working electrodes (1×1×0.318 cm) (VWR, Singapore) were kept for 24 h in 1 M HCl and stored in deionized (DI) water before use. The electrodes were connected to titanium wire (0.25 mmØ, Sigma-Aldrich) using a nylon nut and bolt. A coiled titanium wire was used as counter electrode and an Ag/AgCl reference electrode (78 mm, 6 mm Outer Ø, Biologic, France) was connected using a 1 M KCl in 1.5% agar salt bridge. […]
as §3, with “Chronoamperometry (CA) was applied for up to 24 h to detect redox active reporter moieties.” left out

[4] = test system: A. hydrophila; experiment: Electrochemical detection of A. hydrophila in ECs; format: cell-based, Aeromonas hydrophila; details: both 30° C. and 37° C. (FIG. 5)
Experimental: as §1
as §4, with “bolt.” for “bolt. A coiled titanium wire was used as counter electrode and an Ag/AgCl reference electrode (78 mm, 6 mm Outer Ø, Biologic, France) was connected using a 1 M KCl in 1.5% agar salt bridge.”
as §3, with “Chronoamperometry (CA) was applied for up to 24 h to detect redox active reporter moieties.” left out

SMILES | Suitability for bioelectrochemical detection [1] | Detection time (±std dev) ([2]; 30° C., inoculum 5 × 10^2 CFU mL^−1) | Detection time (±std dev) ([2]; 30° C., inoculum 5 × 10^3 CFU mL^−1) | Detection time (±std dev) ([2]; 30° C., inoculum 5 × 10^4 CFU mL^−1) | Detection time (±std dev) ([2]; 30° C., inoculum 5 × 10^5 CFU mL^−1) | Detection times for E. coli ([2]; 30° C., inoculum sizes 5×10^5-5×10^2) [min] | Detection time (±std dev) ([2]; 37° C., inoculum 5 × 10^2 CFU mL^−1) | Detection time (±std dev) ([2]; 37° C., inoculum 5 × 10^3 CFU mL^−1) | Detection time (±std dev) ([2]; 37° C., inoculum 5 × 10^4 CFU mL^−1) | Detection time (±std dev) ([2]; 37° C., inoculum 5 × 10^5 CFU mL^−1) | Detection time ([2]; inoculum size 5×10^3 CFU mL^−1, ECs) [h] | Detection of E. coli achieved in (time) ([2]; inoculum sizes between 5×10^5 and 5×10^3 CFU mL^−1, ECs, triplicate) [h] | Detection time, mixed culture ([3]; A. hydrophila 5×10^2 CFU mL^−1 (FIG. 5)) [min] | Detection time, mixed culture ([3]; A. hydrophila 5×10^5 CFU mL^−1 (FIG. 5)) [min] | Electrochemical detection of A. hydrophila [4]
Cc1cc(=O)oc2cc(OC3O[C@H](CO)[C@@H](O)[C@H](O)[C@H]3O)ccc12 (stereo partly drawn) [4-methylumbeliferone-glucoside] | not well suited for bioelectrochemical detection |  |  |  |  |  |  |  |  |  |  |  |  |  | 
O=c1ccc2nc3ccc(O[C@@H]4O[C@H](CO)[C@H](O)[C@H](O)[C@H]4O)cc3oc-2c1 [ResGal, resorufin-β-d-galactopyranoside] |  | 521(±121) minutes | 372(±82) minutes | 218(±31) minutes | 150(±56) minutes | 132 to 521 | 734(±188) minutes | 477(±23) minutes | 309(±55) minutes | 260 (±55) minutes | ~8 | 4 to 10 | ~450 | ~280 | could be detected electrochemically
